We go through one molecule from patent publication EP4417202A1, “ANTI-CANCER ACTION OF BAG1-SELECTIVE IMIDAZOPYRIDINE COMPOUNDS IN STEROID HORMONE RECEPTOR-POSITIVE BREAST AND PROSTATE CANCER” (Karlsruher Institut für Technologie, priority 2023, dated 2024).

What all share (assay type): cell-based
The subject of test [1] is ERα response genes. The test is described as follows: Quantitative RT-PCR of ERα response genes in MCF-7 and T47D cells. Particulars: 1 µM, 10 nM E2, 16 h. As for the experimental part: (§1) MCF-7, T47D and LNCaP cells (5×10^4 each) were seeded in 6-well plates and cultured with hormone-depleted medium for 3 days. Subsequently, the MCF-7 and T47D cells were treated with 10 nM 17-β-estradiol (E2) or dihydrotestosterone (DHT) for the LNCaP cells, 1 µM) X15695 (for the MCF-7 and T47D cells) or 5 µM) for LNCaP cells and X15695 together with E2 or DHT. A 1 h pre-treatment with X15695 was performed prior to treatment with E2 or DHT for 16 h. RNA was extracted using innuPREP RNA mini Kit 2.0 (Analytic Jena, Berlin, Germany). 1 µg RNA per sample was used as input material for the RNA sample preparations. Sequencing libraries were generated using NEBNext® UltraTM RNA Library Prep Kit for Illumina® (NEB, USA) following the manufacturer's recommendations and index codes were added to attribute sequences to each sample. The clustering of the index-coded samples was performed on a cBot Cluster Generation System using PE Cluster Kit cBot-HS (Illumina) according to the manufacturer's instructions. After cluster generation, the library preparations were sequenced on an Illumina platform and paired-end reads were generated. Library preparation and sequencing were carried out by Novogene Europe, Cambridge, UK. […] Select target genes were analyzed by RT-PCR experiments with RNA from the samples used for the RNA-seq analysis. […]

In test [2] the test system is LNCaP. The test is described as follows: Clonogenic assay (clonal expansion). Particulars: Homo sapiens; Prostate Cancer (LNCaP), AR+; inhibition of clonal expansion. The protocol:
Cells were seeded at a density of 1-2×10^3 cells/well in a 6 well plate in RPMI 1640 supplemented with 10% FBS, penicillin (100 u/ml), streptomycin (100 u/ml), and L-glutamine (2 mM). Cells were treated with increasing concentrations of X15695 and cultured for 14 to 21 days. Medium and compounds were exchanged after 7 days. Cells were fixed with methanol/ acetic acid mixture (3:1 v/v) and the formation of colonies was visualized using 0.5% crystal violet (w/v) in 20% methanol (v/v). Plates were scanned in a conventional office scanner (Epson). The area covered by colonies was calculated using the ColonyArea Plugin for ImageJ.

In test [3] the test system is p53 target genes. Nature of the test: Quantitative RT-PCR of p53 target genes in MCF-7 and T47D cells. Particulars: 1 µM, absence and presence of E2, 16 h. The protocol: as §1
For test [4], the system named is p53/mortalin complex. The test is described as follows: Co-immunoprecipitation in MCF-7 cells. Particulars: 1 µM, 48 h. As for the experimental part:
(§2) Cells were harvested, washed with PBS, and lysed using NP-40 lysis buffer. Protein A agarose beads (Thermo Fisher Scientific) were mixed with protein G agarose beads (Thermo Fisher Scientific) (4:1) and preincubated overnight at 4°C with anti-p53 or anti-BAG1 or control IgG antibody. Cellular extracts from X15695 treated and untreated cells (1,000 µg) were incubated with antibody-preincubated protein A/G agarose beads for 3 to 4 h at room temperature. The beads with immunoprecipitated proteins were collected at 4°C by centrifugation at 1,000 g for 5 min and washed 4 to 5 times with NP-40 lysis buffer. The immunoprecipitated proteins were eluted by heating in SDS sample buffer for 5 min at 95°C and resolved on SDS-PAGE. Thereafter, they were subjected to Western blot analysis to detect mortalin, BAG1, BAG2, BAG5 and p53. Cellular extracts containing 50 to 70 µg protein from X15695 treated and untreated cells were used as the input control for the targeted proteins.

Test [5] relates to BAG1 in a complex with mortalin. Nature of the test: Co-immunoprecipitation in MCF-7 cells. As to conditions: 1 µM, 48 h. The protocol:
as §2

Test [6] has as its system LNCaP cells. The test is described as follows: FACS cell cycle analysis. As to conditions: 1 µM, 48 h, DRAQ5. As for the experimental part: (§3) LNCaP, LAPC-4, MCF-7 and T47D cells were treated with 1 µM X15695 or DMSO for 48 h. Single cell suspensions (1×10^6 cells) were prepared in 150 µl PBS/10% FBS. Cells were fixed by addition of 5 ml ice-cold ethanol (70%) and over-night incubation at 4°C. Fixed LNCaP and LAPC-4 cells were stained with 20 µM DRAQ5 (5mM stock, Thermo Fisher Scientific) and incubated for 15 min at room temperature. Fixed MCF-7 and T47D cells were resuspended in PBS at concentration of 1×10^6 cells/100 µl and stained by addition of 5 µl of 7-AAD (BD Bioscience, San Diego, CA, USA) for 15 min at room temperature in the dark. Flow cytometry analysis was performed using BD FACSAria (BD Biosciences, Franklin Lakes, NJ, USA). Doublets and dead cells were excluded from the analysis. Flow cytometry data were analyzed using FlowJo 10.8.1 cytometry analysis software (FlowJo, LLC).

In test [7] the test system is T47D cells. Nature of the test: FACS cell cycle analysis. Particulars: 1 µM, 48 h, 7-AAD. As for the experimental part:
as §3

For test [8], the system named is LAPC-4 cells. The test is described as follows: FACS cell cycle analysis. Particulars: 1 µM, 48 h, DRAQ5. As for the experimental part:
as §3

Test [9] relates to MCF-7 cells. The test is described as follows: FACS cell cycle analysis. As to conditions: 1 µM, 48 h, 7-AAD. The protocol:
as §3

The test system of test [10] is p53. The test is described as follows: Immunofluorescence assay, cellular localization of p53. Particulars: MCF-7 cells, 1 µM. As for the experimental part: For immunofluorescence assay, MCF-7, T47D, 22Rv.1, LAPC-4 and LNCaP cells (10^4 each) were seeded on coverslips in a 24-well plate and the desired treatment applied. After three times washing with PBS, cells were fixed with 4% paraformaldehyde solution for 10 min at room temperature. Next, the cells were washed three times with PBS and permeabilized with 0.5% Triton X-100 for 10 min at room temperature. Following three additional washing steps with PBS, cells were treated with 5% bovine serum albumin (w/v) for 1 h at room temperature and subjected to overnight incubation with the primary antibody p53 (DO1 clone or Sp5, Thermo Fisher Scientific), ERα (F-10, Santa-Cruz) or mortalin (D-9, Santa-Cruz) and then washed three times with PBS followed by incubation with goat anti-mouse IgG, Alexa Fluor™ 488 antibody and/or goat anti-rabbit IgG, Alexa Fluor™ 546 antibody (Thermo Fisher Scientific) for 1 h at room temperature in the dark. All subsequent steps were performed in the dark. Cells were washed 3 times with PBS and stained with 0.1 µg/ml DAPI (Thermo Fisher Scientific) solution at 1:10,000 (v/v) dilution for 15 min at room temperature. After three times washing with PBS the cells were mounted in Mowiol® 4-88 on microscope slides and observed by laser-scanning confocal microscopy (Confocal Microscope platform […]6-LSM900, […], Germany).

Broadly, the IC50 is the point on the concentration scale where inhibition reaches its midpoint. Read a low IC50 as inhibition by little substance. On to `Fc1ccc(-c2cn3cc(C(F)(F)F)cc(Cl)c3n2)cc1` [Compound X15695, 8-Chloro-2-(4-fluorophenyl)-6-(trifluoromethyl)imidazo[1,2-a]pyridine], for which the E2-mediated gene expression entry in [1] is reported as “downregulation of E2-mediated gene expression”. This molecule also returned an IC50 in test [2] of 0.0141 µM. The “expression of p53 target genes” value in test [3] is given as “upregulation of expression of p53 target genes”. Moreover, in test [4], the p53-mortalin interaction entry is “decreased this interaction”. In addition, in [5], the BAG1-mortalin interaction result is on record as “indeed decreased this interaction”. In addition, the cell cycle arrest result in test [6] is “G1/S phase arrest”; in [7], “G2/M cell cycle arrest”; in [8] it was “G2/M arrest”; in test [9] it was “G1/S phase arrest”. Moreover, the “cellular localization of p53” value in test [10] is “accumulated in the nucleus as early as 8 h after X15695 treatment”.
